Biological target: T1, human wild-type (WT)-pendrin (Homo sapiens, UniProt O43511)
T1 construct: expressed in transfected cells
T1 sequence (O43511 1-780): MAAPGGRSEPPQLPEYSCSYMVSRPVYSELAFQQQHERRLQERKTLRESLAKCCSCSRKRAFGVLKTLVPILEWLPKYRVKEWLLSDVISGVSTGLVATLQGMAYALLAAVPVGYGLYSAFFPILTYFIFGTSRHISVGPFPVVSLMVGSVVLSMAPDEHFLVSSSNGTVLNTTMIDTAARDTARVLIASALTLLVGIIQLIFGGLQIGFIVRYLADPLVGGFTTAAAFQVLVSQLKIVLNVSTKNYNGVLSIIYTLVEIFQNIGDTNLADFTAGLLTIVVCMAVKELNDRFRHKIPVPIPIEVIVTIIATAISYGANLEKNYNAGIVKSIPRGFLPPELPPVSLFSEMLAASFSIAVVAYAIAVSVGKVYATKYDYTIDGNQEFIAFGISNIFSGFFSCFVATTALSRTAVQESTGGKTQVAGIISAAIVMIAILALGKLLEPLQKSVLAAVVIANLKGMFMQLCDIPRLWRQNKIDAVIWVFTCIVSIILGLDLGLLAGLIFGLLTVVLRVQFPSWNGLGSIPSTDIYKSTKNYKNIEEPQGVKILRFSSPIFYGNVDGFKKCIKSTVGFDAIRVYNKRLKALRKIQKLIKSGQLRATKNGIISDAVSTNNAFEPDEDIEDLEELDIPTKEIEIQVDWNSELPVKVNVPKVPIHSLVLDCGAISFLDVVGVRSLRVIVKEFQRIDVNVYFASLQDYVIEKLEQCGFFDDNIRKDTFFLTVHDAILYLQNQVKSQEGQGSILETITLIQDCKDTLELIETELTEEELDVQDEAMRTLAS
Assay: Pendrin Cl−/I− exchange inhibitory activity, YFP fluorescence in CHO-K1 cells
Assay type: cell-based
Settings: CHO-K1; for inhibition at 1 µM: compound concentration 1 μM; for inhibition at 3 µM: compound concentration 3 μM; for inhibition at 10 µM: compound concentration 10 μM; for inhibition at 30 µM: compound concentration 30 μM; for inhibition at 100 µM: compound concentration 100 μM
Protocol: Chinese hamster ovary (CHO)-K1 cells were cultured in DMEM medium containing 10% fetal bovine serum (FBS), 100 units/ml of penicillin and 100 μg/ml streptomycin. CHO-K1 cells were stably transfected with pcDNA3.1 encoding the halide sensor YFP-H148Q/I152L/F46L and human wild-type (WT)-pendrin.
(§1) CHO-K1 cells expressing human WT pendrin and YFP-F46L/H148Q/I152L were plated in 96-well microplates at a density of 2×10^4 cells per well, and cultured for 48 hours. Each well of the cell cultured 96-well plate was washed 2 times with 200 μL of PBS, and filled with 50 μL of HEPES buffered solution (140 mM NaCl, 5 mM KCl, 1 mM MgCl2, 1 mM CaCl2), 10 mM glucose and 10 mM HEPES (pH 7.4)). Test compounds (1 μL) were added to a final concentration of 1, 3, 10, 30 and 100 μM. After culturing at 37° C. for 10 minutes, the 96-well plate was located on the FLUOstar Omega Microplate Reader (BMG Labtech, Ortenberg, Germany) for a fluorescence assay. Fluorescence was recorded continuously (400 ms per point) for 1 second (baseline), whereby each well was assayed individually for pendrin-mediated I-influx. Then 50 μL of Na-substituted HEPES buffered solution (replacing NaCl with NaI) was added using a liquid injector at 1 second, and YFP fluorescence was recorded for 5 seconds. The initial iodide influx rate was determined from the initial slope of fluorescence by nonlinear regression, after the injection of iodide.
as §1, with “Chinese hamster ovary (CHO)-K1 cells were cultured in DMEM medium containing 10% fetal bovine serum (FBS), 100 units/ml of penicillin and 100 μg/ml streptomycin. CHO-K1 cells were stably transfected with pcDNA3.1 encoding the halide sensor YFP-H148Q/I152L/F46L and human wild-type (WT)-pendrin. 3-2: Assay of Cl^−/I^− exchange activity CHO-K1” for “CHO-K1”, “50” for “1, 3, 10, 30 and 100”, “Then,” for “Then”, “NaI-substituted” for “Na-substituted”

SMILES | inhibition at 1 µM [%] | inhibition at 3 µM [%] | inhibition at 10 µM [%] | inhibition at 30 µM [%] | inhibition at 100 µM [%]
Cc1ccc2[nH]c(C(=O)O)c(CC(=O)N3CCN(c4ccc(C(C)(C)C)cc4)CC3)c2c1 [YPI-A4944, 3-(2-(4-(4-(Tert-butyl)phenyl)piperazin-1-yl)-2-oxoethyl)-5-methyl-1H-indole-2-carboxylic acid] | < 20 | < 20 | 45.4 | 76.2 | 77.3
Cc1cc(C)c2[nH]c(C(=O)O)c(CC(=O)N3CCN(c4ccc(C(C)(C)C)cc4)CC3)c2c1 [YPI-A4945] | < 20 | < 20 | < 20 | 38.5 | 38.6
Cc1ccc2[nH]c(C(=O)O)c(CC(=O)N3CCN(c4c(C)cccc4C)CC3)c2c1 [YPI-A4946, 3-(2-(4-(2,6-Dimethylphenyl)piperazin-1-yl)-2-oxoethyl)-5-methyl-1H-indole-2-carboxylic acid] | 22.4 | 56.9 | 82.3 | 94.5 | 95.6
Cc1cc(C)c2[nH]c(C(=O)O)c(CC(=O)N3CCN(c4c(C)cccc4C)CC3)c2c1 [YPI-A4947, 3-(2-(4-(2,6-dimethylphenyl)piperazin-1-yl)-2-oxoethyl)-5,7-dimethyl-1H-indole-2-carboxylic acid] | < 20 | < 20 | 40.8 | 41.3 | 41.9
Cc1cc(C)c2[nH]c(C(=O)O)c(CC(=O)N3CCN(c4c(C)cccc4Cl)CC3)c2c1 [YPI-A4949, 3-(2-(4-(2-Chloro-6-methylphenyl)piperazin-1-yl)-2-oxoethyl)-5,7-dimethyl-1H-indole-2-carboxylic acid] | < 20 | 39.5 | 78.9 | 79.3 | 79.6
Cc1cccc(Cl)c1N1CCN(C(=O)Cc2c(C(=O)O)[nH]c3ccc(F)cc23)CC1 [YPI-A4963, 3-(2-(4-(2-Chloro-6-methylphenyl)piperazin-1-yl)-2-oxoethyl)-5-fluoro-1H-indole-2-carboxylic acid] | < 20 | 52.3 | 89.6 | 100 | 
Cc1cccc(C)c1N1CCN(C(=O)Cc2c(C(=O)O)[nH]c3ccc(F)cc23)CC1 [YPI-A4964, 3-(2-(4-(2,6-Dimethylphenyl)piperazin-1-yl)-2-oxoethyl)-5-fluoro-1H-indole-2-carboxylic acid] | < 20 | < 20 | 51.4 | 88.9 | 
CC(C)(C)c1ccc(N2CCN(C(=O)Cc3c(C(=O)O)[nH]c4ccc(F)cc34)CC2)cc1 [YPI-A4965, 3-(2-(4-(4-(Tert-butyl)phenyl)piperazin-1-yl)-2-oxoethyl)-5-fluoro-1H-indole-2-carboxylic acid] | < 20 | < 20 | < 20 | 62.7 | 
O=C(O)c1[nH]c2ccc(Cl)cc2c1CC(=O)N1CCN(c2ccc(-c3ccccc3)cc2)CC1 [YPI-A4966, 3-(2-(4-([1,1′-biphenyl]-4-yl)piperazin-1-yl)-2-oxoethyl)-5-chloro-1H-indole-2-carboxylic acid] | < 20 | < 20 | < 20 | < 20 | < 20
